A word on the melting point: it is the temperature of the solid-liquid transition.

Residues, ends and D or L forms follow the SMILES beside them. *: point of attachment. Boc = CC(C)(C)OC(=O)*

For the compound `Cn1cncc1C(O)(c1ccc(Cl)cc1)c1ccc2c(c1)C(c1cccc(Cl)c1)SCc1nnnn1-2` (stereo not drawn), the melting point turned out to be 217 °C.
The compound `CC(C)(Cn1c(CO)nc2c(N)nc3ccccc3c21)NC(=O)C1CCCCC1` registered a melting point of 248 to 250 °C.
Compound `CCc1nn(-c2ccccc2)nc1C(C#N)C(=O)c1c(C)c(C)nn1C` (stereo not drawn) registered a melting point of 119 °C.
`CNC(=O)C(=NOC)c1ccccc1Oc1cccc(-c2ccc(Cl)cc2)c1`: the melting point lay within 118 to 121 °C.
In the case of `COc1ccc(-c2nc3n(c2-c2ccncc2)CCS3=O)cc1` (stereo not drawn), the melting point was in the range of 165 to 170 °C.
Regarding `O=c1ccoc(C(O)c2ccccc2)c1OCc1ccccc1` (stereo not drawn), the melting point fell in the range of 121 to 122 °C.
In the case of `O=C(NC(Cc1ccc(OCc2ccccc2)cc1)C(=O)O)c1cn2cc(-c3ccc(Cl)cc3)cnc2n1` (stereo not drawn), the melting point was in the range of 252 to 253 °C.
The same measure for `CCCc1ccc(S(=O)(=O)Nc2ccc3nc(C)oc3c2)cc1`: 102 °C; for `O=C(O)C=C1SC(=NCCc2ccccc2)N(CCc2ccccc2)C1=O`: 148 to 149 °C; for `COCCNc1ccc(CN2CCN(C(c3ccccc3)c3ccccc3)CC2)cc1[N+](=O)[O-]`: 97.2 °C.
The same measure for `Cn1cnnc1SC1=C(c2cc(Cl)ccc2O)C2C=C(C(F)(F)F)C=CC2NC1=O` (stereo not drawn): greater than 310 °C; for `COc1ccc(OC(C)=O)c2ccccc12`: 51 to 53 °C; for `CC(C)C1(C)NC(c2nc(-c3ccsc3)ccc2C(=O)O)=NC1=O` (stereo not drawn): 253 to 257 °C.
The same measure for `O=C(CCl)Nc1ccc2c(c1NC(=O)c1cc(C(F)(F)F)ccc1C(F)(F)F)C(=O)c1ccccc1C2=O`: 187 to 188 °C.
The compound `CCCc1c(C(=O)C(C)C)c2ccc(C(=O)OCc3ccccc3)cc2n1C(=O)c1ccccc1Cl` gave a melting point of 67.5 to 70 °C.
`CCOC(=O)c1cc(=O)c(-c2ccc(OCc3ccccc3)c(OCc3ccccc3)c2)co1` displayed a melting point of 122 to 125 °C.
Turning to `O=C(Nc1ccc(CN2CCCCC2)cc1)c1ccc2ccc(-c3ccccc3)cc2c1`, the melting point lay in the range of 177 to 178 °C.
The same measure for `Cn1ncc(C(=O)O)c1Cl`: 195 to 197 °C; for `OCC1OC(c2c(Cl)nc3cc(Cl)c(Cl)cn23)C(O)C1O` (stereo not drawn): 239 to 240 °C.
`CC(Cl)(Cl)C(NC(=O)c1cccc(Cl)c1)NC(=NC#N)Nc1ccc(F)nc1` (stereo not drawn): the melting point was 124 to 125 °C.
`C=C(CC)C(=O)c1ccc(OC(C)C(=O)O)c(Cl)c1Cl` (stereo not drawn) returned a melting point of 115 to 119 °C.
Turning to `C=C(C)CNc1cc(C)nc2cn[nH]c12`, the melting point was in the range of 161 to 164 °C.
`CCSc1cc(C)nc(SCC)c1NC(=O)CCCCCCSc1nc2cccc(C(F)(F)F)c2o1` registered a melting point of 127 to 128 °C.
As for `Oc1ccc(N2CCN(Cc3nc4ccccc4[nH]3)CC2)cc1`, the melting point was in the range of 206 to 209 °C.
For `Cc1ccc(Oc2ccccc2-n2cc(C(=O)O)cn2)c(O)c1`, the melting point is 219 to 221 °C.
The same measure for `Cc1oc(-c2ccccc2)nc1COc1ccccc1CON=C(CCC(=O)O)c1ccccc1`: 116 to 117 °C; for `O=C1c2cccc([N+](=O)[O-])c2C(=O)N1c1ccc(OC(F)(F)F)cc1`: 149 to 150 °C; for `Cc1cc(-c2cc(C(F)(F)F)n3ncc(-c4nc(-c5ccc(N)nc5)no4)c3n2)ccc1Cl`: 262 °C.
Compound `Cc1cccc(C)c1NC(=O)N(Cc1ccccc1)CC1(c2ccccc2)CCCC1` had a melting point of 200 to 202 °C.
On to `O=S(CBr)c1ccc(Cl)cc1` (stereo not drawn), for which the melting point stood at 100 °C.
The same measure for `COc1cc2[nH]c(N(C)Cc3cccc(N4CCCC4=O)c3)nc(=O)c2c(OC)c1OC`: 166 °C; for `O=C(Oc1ccc([N+](=O)[O-])cc1)[C@@H]1CCCN1C(=O)OCc1ccccc1`: 94 to 96 °C.
In turn, `CC(C)(C)OC(=O)N1CC(CO)c2c1cc(OCc1ccccc1)c1ncccc21` (stereo not drawn) had a melting point of 170 to 171 °C.
`CC(C)(C)OC(=O)NCC(=O)NCC(=O)NCC(=O)O` (Boc-Gly-Gly-Gly-OH) had a melting point of 115 to 120 °C.
The same measure for `Oc1ccc(C2=CCN(CCCN3CCOCC3)CC2)cc1`: 166 to 168 °C; for `COC(=O)c1ccc2c(Cl)ccnc2c1`: 118 to 119 °C; for `CC(C)NC(=O)N1C(=O)Cc2ccccc21`: 84 to 85.5 °C.
`CC(=O)c1cn(Cc2ccccc2)c(=O)n(Cc2ccccc2)c1=O` yielded a melting point of 92 to 93 °C.
In turn, `N#Cc1cnc2sc(S(=O)(=O)Cc3ccccc3)nn2c1=O` came in with a melting point of 219 to 221 °C.
Take `CCCNC(=O)C(CCC(=O)NCCCOC(C)=O)NC(=O)C=Cc1ccco1` (stereo not drawn): the melting point fell in the range of 154 to 156 °C.
The same measure for `Cc1cccc(NC(=O)NC2N=C(c3ccccc3)c3ccccc3N(Cc3nccc4ccccc34)C2=O)c1` (racemic): 218 to 221 °C; for `COc1ccc(-c2ccc3c(c2)C(C)(C)OC(=O)N3)cc1F`: 210 to 211 °C; for `C1=CCC2=c3cnc4ccccc4c3=NC2=C1`: 146 to 148 °C.
Turning to `NS(=O)(=O)Oc1cccc(-n2cnc(-c3ccccc3)c2)c1`, the melting point fell in the range of 209 to 211 °C.
In turn, `CC(C)(COc1ncc(C(F)(F)F)cc1Cl)C(=O)C(Oc1ccc(F)cc1)n1cncn1` (stereo not drawn) showed a melting point of 104 to 106 °C.
Compound `O=C(C1=CCCCC1)c1cc(-c2ccccc2)no1` yielded a melting point of 70 to 71 °C.
For `COCSc1nccn1-c1cccc(C2=Nc3ccc(-c4ccccc4F)cc3NC(=O)C2)c1`, the melting point lay in the range of 189 to 190 °C.
With `CCCCc1nc(Cl)c(C(=O)O)n1Cc1ccc2oc(-c3ccccc3-c3nnn[nH]3)c(OC)c2c1`, the melting point is 140 to 144 °C.
`CCCCN(C(=O)c1cnc(N2CCNC2=O)nc1N)c1cccc(C(F)(F)F)c1`: the melting point fell in the range of 234 to 235 °C.
The compound `CC#CCN(C)c1ccc(OC23CC4CC(CC(C4)C2)C3)cc1` gave a melting point of 180 to 181 °C.
Turning to `CCCCC(=O)Nc1cccc2c1C1(COc3cc4c(cc31)OCCO4)C(=O)N2C` (stereo not drawn), the melting point is 182 to 183 °C.
With `CC(=O)OC1CCC2(C)C(=CC(=O)C3C2CCC2(C)C(OC(C)=O)CCC32)C1` (stereo not drawn), the melting point lay in the range of 220 to 221 °C.
Compound `CC(CCC(=O)OC1CCCCC1)C1CC=C2C3=C(CCC21C)C1(C)CCC(O)C(C)(C)C1CC3` (stereo not drawn) gave a melting point of 130 to 132 °C.
Consider `CS(=O)(=O)Nc1ccc2c(c1)C(=O)CC1(CCN(CCc3ccc(N)c(N)c3)CC1)O2`, for which the melting point lay within 109 to 112 °C.
As for `CC(C)C[C@H](NC(=O)c1ccc2c(c1)Nc1ccccc1S2)C(=O)N[C@@H](CC(C)C)C(=O)N[C@@H](CC(C)C)C(=O)N[C@H]1CCOC1O` (stereo partly drawn), the melting point lay within 174 to 176 °C.
`COc1ccc(OC)c2c1C[C@@H](O)[C@H](N1CCN(c3ccccc3Cl)CC1)C2` (relative stereo): the melting point lay in the range of 237 to 239 °C.
Turning to `Cc1c(OCc2nnn[nH]2)cc2c(c1Cl)C(=O)C1(CCCC1)C2=O`, the melting point came out at 211 °C.
On to `COC(=O)c1cc(C(C)=O)cs1`, for which the melting point was 94 to 96 °C.
With `CCOC(=O)c1cc(-n2c(=O)c3c(n(C)c2=O)CCCC3)ccc1Cl`, the melting point is 108 to 112 °C.
`COc1ccc2c(c1)C(N=Cc1ccc(O)c(OC)c1)CCO2` (stereo not drawn): the melting point is 136 to 139 °C.
With `CC(OC(=O)NC1(C(=O)O)CC1)OC(=O)C(C)C` (stereo not drawn), the melting point is 127 to 130 °C.
`COC(=O)CCCC(N)=O`: the melting point stood at 80 °C.
The same measure for `O=C(O)C1=Cc2cc(Oc3ccc(C(F)(F)F)cc3)ccc2OC1C(F)(F)F` (stereo not drawn): 154 °C.
On to `Cn1nc(C(C)(C)C)cc1O`, for which the melting point was 150 °C.
In the case of `CNC(=O)C(N)Cc1ccc2ccccc2c1` (stereo not drawn), the melting point fell in the range of 127 to 128 °C.
As for `O=Cc1ccc(F)c(OCc2ccccc2)c1`, the melting point lay in the range of 68 to 69 °C.
As to `COC(=O)COc1ccc(CC(C)NCC(O)c2ccc(O)c(CO)c2)cc1` (stereo not drawn), the melting point is 60 to 63 °C.
The same measure for `CSc1cnc2c(C)c(C)sc2c1O`: 233 to 236 °C.
The same measure for `CCNC(=O)N(C)Cc1cccc2c1C(=O)N(C1CCC(=O)NC1=O)C2=O` (stereo not drawn): 219 to 221 °C.
The compound `CCC(c1ccc(Br)cc1)N(O)C(=O)NC` (stereo not drawn) displayed a melting point of 110 to 112 °C.
`Cc1cc[nH]c(=O)c1NC(=O)c1ccccc1` returned a melting point of 264 to 265 °C.
The same measure for `CCCCCCCCCCCCCCCC(=O)OC(CCCCCCCCCCCCCCC)CC(=O)NCCC(=O)NC(CCC(=O)O)C(=O)O` (stereo not drawn): 100 to 104 °C; for `COc1cc2c(cc1OC)C1NC(=O)CCC1=C2c1ccccc1` (stereo not drawn): 259 to 260 °C; for `C=Cn1ccnc1C=O`: 48 to 51 °C.
The same measure for `CCc1nn(CO)c(CC)c1Cc1cc(Cl)cc(Cl)c1`: 117 to 118 °C.
Turning to `N#Cc1ccc(Nc2ccncc2[N+](=O)[O-])cc1`, the melting point lay in the range of 210 to 211 °C.
Regarding `CCOC(=O)c1c(N)c(C)nn1C`, the melting point lay within 55.5 to 56.5 °C.
The same measure for `CCN1c2ncc(COc3cccc(C(=O)O)c3)cc2C(=O)N(C)c2ccc(Cl)nc21`: 181 to 182 °C; for `COc1ccc(-c2c(S(C)(=O)=O)ccc(C(=O)c3cnn(C(C)(C)C)c3OC(C)=O)c2C)cc1`: 160 to 163 °C.
The compound `CC(=O)O[C@@H]1[C@H](OC(C)=O)[C@@H](C)O[C@H]1n1c(Br)nc2c(Br)c(Cl)c(Cl)cc21` registered a melting point of 152 to 154 °C.
The compound `CSc1nc(O)c(NC(=O)c2ccco2)c(O)n1` returned a melting point of 124 to 125 °C.
With `O=C1CCC(c2ccc3[nH]c(-c4ccsc4)cc3c2)=NN1`, the melting point lay within 325 to 333 °C.
`CC12CCC(=O)C=C1CCC1C2C(F)CC2(C)C(O)CCC12` (stereo not drawn) yielded a melting point of 161 to 162 °C.
The same measure for `COc1ccc(CC[N+](=O)[O-])cc1OC`: 50 to 52 °C; for `O=S(=O)(c1ccccc1)N1CCC(C(O)(c2ccc(F)cc2)c2ccc(F)c(F)c2)CC1` (stereo not drawn): 97 to 99 °C.
`CCCCCCCCCCS(=O)(=O)NC(=O)c1cnc(C(N)=O)c(OC)c1`: the melting point was 145 °C.
Regarding `CCOC(=O)c1c(-c2ccccc2Cl)c2cc(CC)sc2n(C)c1=O`, the melting point lay in the range of 105 to 106 °C.
As for `COc1cc2c(cc1OC)CN(c1nc(N)nc(Cl)n1)CC2`, the melting point fell in the range of 196 to 197 °C.

The values are drawn from a melting point compilation (Tetko et al.; mined from patent text by program, amines drawn as free bases though some values may be those of a salt).
